According to patent US20250129095A1, “ANNULATED 2-AMINO-3-CYANO THIOPHENES AND DERIVATIVES FOR THE TREATMENT OF CANCER” (Boehringer Ingelheim Int'l GmbH Corp., priority 2021, published 2025):
In brackets after ≈: the same amount, converted by molar mass. Read-outs that look alike come from different tables or passages of the source.

Tests used:
[1] = test system: NCI-H2122 cells; assay: NCI-H2122 CTG proliferation assay (120 h) (NSCLC, G12C); type: cell-based; conditions: Homo sapiens
Protocol: The CTG assay is designed to measure quantitatively the proliferation of NCI-H2122 cells (ATCC CRL-5985), using the CellTiter Glow Assay Kit (Promega G7571). Cells are grown in RPMI medium (ATCC) supplemented with Fetal Calf Serum (Life Technologies, Gibco BRL, Cat. No. 10270-106). On “day 0” 200 NCI-H2122 cells are seeded in 60 μL RPMI ATCC+10% FCS+Penstrep in a black 384-well plate, flat and clear bottom (Greiner, PNr. 781091). Cells are then incubated in the plates at 37° C. in a CO2 incubator overnight. On day 1, compounds (10 mM stock in DMSO) are added with the ECHO acoustic liquid handler system (Beckman Coulter), including DMSO controls. Plates are incubated for 120 h, and cell viability is measured using CellTiter-Glo luminescent cell viability reagent (Promega product code G7570). Viability (stated as percent of control) is defined as relative luminescence units RLU of each well divided by the RLU of cells in DMSO controls. […] values are determined from viability measurements by non-linear regression using a four parameter model. • AsPC-1 CTG proliieradon assay (120 h) (pancreatic cancer, G12D)

[2] = test system: LOVO cells; assay: LOVO CTG proliferation assay (120 h) (CRC, G13D); type: cell-based; conditions: Homo sapiens
Protocol: LOVO cells (ATCC CCL-229) are dispensed into 384-well plates, flat and clear bottom (Greiner, PNr. 781091) at a density of 1000 cells per well in 60 μL DMEM (Sigma D6429)+10% Fetal Calf Serum (HyClone, PNr.: SH30084.03) and incubated at 37° C. in a CO2 incubator overnight. The next day, compounds (10 mM stock in DMSO) are added with the ECHO acoustic liquid handler system (Beckman Coulter), including DMSO controls. Plates are incubated for 120 h, and cell viability is measured using CellTiter-Glo luminescent cell viability reagent (Promega product code G7570). Viability (stated as percent of control) is defined as relative luminescence units RLU of each well divided by the RLU of cells in DMS0 controls. IC50 values are determined from viability measurements by non-linear regression using a four-parameter model.

[3] = target: KRAS G12C Ba/F3 (Homo sapiens, UniProt P01116, G12C, cells depend on it); assay: Ba/F3 proliferation assay, KRAS G12C; type: cell-based; conditions: 72 h, AlamarBlue, read-out: KRAS G12C Ba/F3 IC50
Protocol: Plasmids containing KRASG12 mutants(i.e. G12D, G12C, G12V) are obtained from GeneScript. To generate KRASG12-dependent Ba/F3 models, Ba/F3 cells are transduced with retroviruses containing vectors that harbor KRASG12 isoforms. Platinum-E cells (Cell Biolabs) are used for retrovirus packaging. Retrovirus is added to Ba/F3 cells. To ensure infection, 4 μg/mL polybrene is added and cells are spinfected. […] Cells with an infection efficiency of 10% to 20% are further cultivated and puromycin selection with 1 μg/mL is initiated. As a control, parental Ba/F3 cells are used to show selection status. Selection is considered successful when parental Ba/F3 cells cultures died. To evaluate the transforming potential of KRASG12 mutations, the growth medium is no longer supplemented with IL-3. Ba/F3 cells harboring the empty vector are used as a control. Approximately ten days before conducting the experiments, puromycin is left out.
Compounds are added using an Access Labcyte Workstation with a Labcyte Echo 550 or 555 accoustic dispenser. All treatments are performed in technical duplicates. […] AlamarBlue™ (ThermoFisher), a viability stain, is added and fluorescence measured in the PerkinElmer Envision HTS Multilabel Reader. The raw data are imported into and analyzed with the Boehringer Ingelheim proprietary software MegaLab (curve fitting based on the program PRISM, GraphPad Inc.).

[4] = Solubility measurement (DMSO solution precipitation method); type: physicochemical; conditions: aqueous buffer, kinetic from dmso stock
Protocol: The DMSO solution is diluted with an aqueous medium (McIlvaine buffer with pH=4.5 or 6.8) to a final concentration of 250 μM. After 24 h of shaking at ambient temperature a potentially formed precipitate is removed by filtration. The concentration of the test compound in the filtrate is determined by LC-UV methods by calibrating the signal to the signal of a reference solution with complete dissolution of the test compound in acetonitrile/water (1:1) with known concentration.

[5] = test system: NCI-H358 cells; assay: NCI-H358 CTG proliferation assay (120 h) (NSCLC, G12C); type: cell-based; conditions: Homo sapiens
Protocol: Additional Proliferation Assays with Mutant Cancer Cell Lines • NCI-H358 CTG proliferation assay (120 h) (NSCLC, G12C)
NCI-H358 cells (ATCC No. CRL-5807) are dispensed into black 384-well plates, flat and clear bottom (Greiner, PNr. 781091) at a density of 200 cells per well in 60 μl RPMI-1640 ATCC-Formulation (Gibco #A10491)+10% FCS (fetal calf serum). […] For the TO time point measurement, untreated cells are analyzed at the time of compound addition. Plates are incubated for 120 h, and cell viability is measured using CellTiter-Glo luminescent cell viability reagent (Promega product code G7570). Viability (stated as percent of control) is defined as relative luminescence units RLU of each well divided by the RLU of cells in DMSO controls.

[6] = McIlvaine buffer pH 4.5, 24 h, read-out: Solubility [μg/ml] pH 4.5
[7] = McIlvaine buffer pH 6.8, 24 h, read-out: Solubility [μg/ml] pH 6.8

Sequence of KRAS G12C Ba/F3 (P01116 whole entry G12C, canonical isoform): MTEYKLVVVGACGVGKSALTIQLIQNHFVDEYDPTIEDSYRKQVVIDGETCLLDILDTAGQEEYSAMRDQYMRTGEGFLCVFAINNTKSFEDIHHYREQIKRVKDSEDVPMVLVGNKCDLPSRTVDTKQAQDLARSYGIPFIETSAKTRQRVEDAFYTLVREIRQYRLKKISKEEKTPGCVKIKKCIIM

Row | IC50 [1] [nM] | IC50 [2] [nM] | GI50 [3] [nM] | solubility at 24 h [4, 6] [µg/mL] | solubility at 24 h [4, 7] [µg/mL] | IC50 [5] [nM] | Structure (SMILES)
1 | 4700 | 139 | 376 | > 144 | > 142 |  | C[C@H](Oc1cc(N(C)CCN(C)C)nc(-c2noc3c2CCC[C@@]32CCCc3sc(N)c(C#N)c32)n1)[C@@H]1CCCN1C [II-20]
2 | 1420 | 960 | 15 | 67 (≈ 115 µM) | 11 (≈ 18.8 µM) | 558 | C[C@H](Oc1cc(Nc2cnccn2)nc(-c2noc3c2CCC[C@@]32CCCc3sc(N)c(C#N)c32)n1)[C@@H]1CCCN1C [II-14]
3 | 822 | 1120 | 37 |  |  | 430 | C[C@H](Oc1cc(Nc2cccnn2)nc(-c2noc3c2CCC[C@@]32CCCc3sc(N)c(C#N)c32)n1)[C@@H]1CCCN1C [II-18]
4 | 2200 | 186 | 195 | > 143 | > 126 |  | C[C@H](Oc1cc(OCC2(N(C)C)CC2)nc(-c2noc3c2CCC[C@@]32CCCc3sc(N)c(C#N)c32)n1)[C@@H]1CCCN1C [II-21]
5 |  |  | 24 | 41 (≈ 70.4 µM) | < 1 | 440 | C[C@H](Oc1cc(Nc2ccccn2)nc(-c2noc3c2CCC[C@@]32CCCc3sc(N)c(C#N)c32)n1)[C@@H]1CCCN1C [II-16]
6 | 847 | 708 | 29 |  |  | 123 | C[C@H](Oc1cc(Nc2ccncn2)nc(-c2noc3c2CCC[C@@]32CCCc3sc(N)c(C#N)c32)n1)[C@@H]1CCCN1C [II-15]
7 | 1710 | 39 | 22 | > 168 | > 157 |  | C[C@H](Oc1cc(OCC2(N(C)C)COC2)nc(-c2noc3c2CCC[C@@]32CCCc3sc(N)c(C#N)c32)n1)[C@@H]1CCCN1C [II-22]
8 | 389 | 35 | 85 | > 163 | > 152 |  | COc1c(OCC2(N(C)C)COC2)nc(-c2noc3c2CCC[C@@]32CCCc3sc(N)c(C#N)c32)nc1O[C@@H](C)[C@@H]1CCCN1C [II-25]
9 | 731 | 216 | 79 |  |  | 36 | C[C@H](Oc1cc(O[C@@H]2CNC[C@@H]2F)nc(-c2noc3c2CCC[C@@]32CCCc3sc(N)c(C#N)c32)n1)[C@@H]1CCCN1C [II-29]

The remaining lines, values behind:

Row | Structure (SMILES) | IC50 [1] [nM] | IC50 [2] [nM] | GI50 [3] [nM] | solubility at 24 h [4, 6] [µg/mL] | solubility at 24 h [4, 7] [µg/mL] | IC50 [5] [nM]
10 | C[C@H](Oc1cc(Oc2cncnc2)nc(-c2noc3c2CCC[C@@]32CCCc3sc(N)c(C#N)c32)n1)[C@@H]1CCCN1C [II-1] | 715 | 433 | 4 | > 137 | > 124 | 178
11 | C[C@H](Oc1cc(Nc2ccccn2)nc(-c2onc3c2CCC[C@@]32CCCc3sc(N)c(C#N)c32)n1)[C@@H]1CCCN1C [Example I-6] | 1120 | 595 | 58 | 23 (≈ 39.5 µM) | 2 (≈ 3.43 µM) | 1360
12 | C[C@H](Oc1cc(Oc2cncnc2)nc(-c2onc3c2CCC[C@@]32CCCc3sc(N)c(C#N)c32)n1)[C@@H]1CCCN1C [Example I-3] | 2280 | 35 | 4 | > 128 | > 121 | 
13 | C[C@H](Oc1cc(NCC2COC2)nc(-c2noc3c2CCC[C@@]32CCCc3sc(N)c(C#N)c32)n1)[C@@H]1CCCN1C [II-11] | 2130 | 568 | 14 |  |  | 
14 | C[C@H](Oc1cc(Oc2ccon2)nc(-c2noc3c2CCC[C@@]32CCCc3sc(N)c(C#N)c32)n1)[C@@H]1CCCN1C [II-3] | 275 | 102 | 17 | > 138 | 42 (≈ 73.2 µM) | 275
15 | C[C@H](Oc1cc(Oc2cnccn2)nc(-c2noc3c2CCC[C@@]32CCCc3sc(N)c(C#N)c32)n1)[C@@H]1CCCN1C [II-7] | 997 | 15 | 4 | > 118 | 90 (≈ 154 µM) | 
16 | COC[C@H](C)Nc1cc(O[C@@H](C)[C@@H]2CCCN2C)nc(-c2onc3c2CCC[C@@]32CCCc3sc(N)c(C#N)c32)n1 [Example I-5] |  |  | 71 | 111 (≈ 192 µM) | 109 (≈ 189 µM) | 
17 | C[C@H](Oc1cc(O[C@@H]2CNC2(C)C)nc(-c2noc3c2CCC[C@@]32CCCc3sc(N)c(C#N)c32)n1)[C@@H]1CCCN1C [II-9] | 1250 | 99 | 133 |  |  | 69
18 | C[C@H](Oc1cc(Oc2cccnc2)nc(-c2onc3c2CCC[C@@]32CCCc3sc(N)c(C#N)c32)n1)[C@@H]1CCCN1C [Example I-2] | 740 | 32 | 4 | > 125 | 89 (≈ 152 µM) | 
19 | C[C@H](Oc1cc(N(C)C)nc(-c2noc3c2CCC[C@@]32CCCc3sc(N)c(C#N)c32)n1)[C@@H]1CCCN1C [II-10] | 2420 | 4080 | 61 | > 107 | 95 (≈ 178 µM) | 
20 | C[C@H](Oc1cc(Oc2nccs2)nc(-c2onc3c2CCC[C@@]32CCCc3sc(N)c(C#N)c32)n1)[C@@H]1CCCN1C [Example I-1] | 1470 | 54 | 4 | 95 (≈ 161 µM) | < 1 | 
